# Entries after “also recorded” stand apart in the source; their conditions may differ.
# Experiments:
# SD rats [1] = assay: Acute toxicity test (maximum dose method); type: in vivo; parameters: key to Inflammation score: 0: no or very little inflammation; 1: mild inflammation; 2: moderate inflammation; 3: severe inflammation; settings: for ALB / ALP / ALT / AST / DBIL / TBA / TBIL / TP / γ-GT: serum
# Description: The experimental animals are 40 SPF-grade SD rats, provided by the Experimental Animal Center of China Three Gorges University (SCXK (E)) 2017-0012), wherein half are males, and half are females, each with a body weight of 150 g; the animal number is: No. 42010200001245, and the experimental unit license number is: SYXK (E) 2014-0080.
# (§1) 5 SPF-grade SD rats are randomly selected for toxicity prediction. Another 30 SPF-grade SD rats are randomly selected, wherein half are males, and half are females. After the purchase of the animals, the animals are adaptively fed for one week. The rats are fasted at the night before the experiment (without stopping the provision of water). During the experiment, the animals are randomly divided into 3 groups, which are the control group, the low-dose hordenine treatment group (0.035 g/kg), and the high-dose hordenine treatment group (0.07 g/kg).
# If no rats die in the pre-experiment, according to the acute toxicity test method, the maximum dose method is used, and hordenine is administered by gavage at a high dose of 0.07 g/kg and a low dose of 0.035 g/kg, respectively. The control group is given the same volume of saline. The administration is carried out twice a day (with an interval of no less than 4 hours) for 7 days, and the rats are fasted for 3 to 4 hours after the administration. The animals' immediate reactions are recorded, and the rats' appearance, behavior, activity, spirit, appetite, fur, breathing, weight, and the like, are carefully observed continuously for 14 days. The poisoning, death, and amounts of food and water consumed by the rats are recorded daily to determine the LD0 (0% mortality), LD100 (100% mortality) and the r value between the corresponding dose groups, and determine the LD50 (half lethal dose) value. For mice that die during the experiment, they should be dissected immediately to find the cause of their death. After the completion of the experiment, all survived rats are anesthetized by intraperitoneal injection of urethane, and immediately dissected to remove the heart, liver, spleen, lung, and kidney, which are observed with naked eyes for disease. And pathological sections of each organ are made: The tissues are fixed with a solution of 4% paraformaldehyde, conventionally sampled, dehydrated, embedded in paraffin, made into a slice (4 μm thick), stained with HE staining method, observed with an optical microscope, and photographed to roughly determine the target organs of toxicity. The serum of all experimental rats is used for the determination of routine blood biochemical indexes.
# prolactin (PRL) = assay: ELISA of prolactin content in serum of rats with prolactinoma and adrenocorticotrophic hormone adenoma; type: in vivo, F344 rats (Rattus norvegicus); settings: oral gavage 40, 20, 10 mg/kg once a day for 30 days; vs model group
# Description: (§2) 70 rats of the prolactinoma and adrenocorticotrophic hormone adenoma model as established in Step 1.1 “Establishment of Rattus norvegicus pituitary tumor model” and normal rats of the control group are used as samples.
# (§3) The 70 F344 rats are randomly divided into the normal group, operation group, model group, positive drug group (bromocriptine positive drug group), high-dose hordenine group, medium-dose hordenine group, and low-dose hordenine group, […]. Except rats in the normal group and the operation group, rats in the other groups are all made into rats with prolactinoma and adrenocorticotrophic hormone adenoma.
# (§4) Rats in the positive drug group are given an aqueous bromocriptine solution by gavage at a dose of 0.45 mg/kg. Rats in the high-, medium- and low-dose groups of an aqueous solution of hordenine are given an aqueous solution of hordenine by oral gavage at a dose of 40 mg/kg, 20 mg/kg, and 10 mg/kg, respectively. Rats in the normal group and the model group are given the same dose of distilled water. The administration is performed once a day for 30 days, and during this period of time, the rats are weighed every five days and the changes in body weight are recorded. […]
# (§5) The contents of PRL and IL-β in the serum of rats in each group are determined by ELISA according to the procedures in the ELISA kit instructions.
# SD rats [2] = assay: Toxicity prediction (pre-experiment); type: in vivo; settings: gavage 0.07 g/kg twice a day
# Description: as §1
# 7 mg/ml of hordenine solution (the theoretical maximum solubility of hordenine is 7 mg/ml) is used for pre-experiment to observe the survival of rats. 5 SPF-grade SD rats are randomly selected, and hordenine is administered by gavage at the maximum dose of 0.07 g/kg, twice a day, with an interval of no less than 4 hours, 1 day of administration, and 7 days of observation. The poisoning, death, and amounts of food and water consumed by the rats are daily observed and recorded. For rats that die during the experiment, they are immediately dissected to find the cause of death. After the completion of the experiment, all dying rats will be dissected to remove the heart, liver, spleen, lung and kidney for visual observation, and pathological sections of each organ are made to roughly determine the target organ of toxicity.
# IL-β = assay: ELISA of IL-β content in serum of rats with prolactinoma and adrenocorticotrophic hormone adenoma; type: in vivo, F344 rats (Rattus norvegicus); settings: oral gavage 40, 20, 10 mg/kg once a day for 30 days; vs model group
# Description: as §2, §3, §4, §5
# TLR4/NF-κB/MAPK pathway = assay: Western blot of pituitary protein expression in rats with prolactinoma and adrenocorticotrophic hormone adenoma; type: in vivo, F344 rats (Rattus norvegicus); settings: once a day for 30 days by gavage; vs model group
# Description: as §2, §3
# Rats in the positive drug group are given an aqueous bromocriptine solution by gavage at a dose of 0.45 mg/kg. Rats in the high-, medium- and low-dose groups of an aqueous solution of hordenine are given an aqueous solution of hordenine by oral gavage at a dose of 40 mg/kg, 20 mg/kg, and 10 mg/kg, respectively. Rats in the normal group and the model group are given the same dose of distilled water. The administration is performed once a day for 30 days, and during this period of time, the rats are weighed every five days and the changes in body weight are recorded.
# Tissue extraction: The animals in each group are anesthetized, and the pituitary glands are removed as described in Section 2.2.2 of Part I, which are kept at −80° C. for later use.
# The protein expression of TLR4/NF-κB/MAPK pathway in rats in the treatment groups after the administration of hordenine is determined by Western blotting detection. The effect of hordenine on the expression of various proteins in the pituitary glands of rats with prolactinoma and adrenocorticotrophic hormone adenoma as determined by Western blot detection on is shown in FIG. 16.
# pituitary prolactinoma = settings: patients; cited from earlier work
# [3] = gavage 0.07 and 0.035 g/kg twice a day for 7 days
# [4] = low-dose, high-dose vs control, P>0.05
# [5] = high-dose group (0.07 g/kg), female
# [6] = high-dose group (0.07 g/kg), male
# [7] = low-dose group (0.035 g/kg), female
# [8] = low-dose group (0.035 g/kg), male
smiles,measurement,setting,value
"CN(C)CCc1ccc(O)cc1 [hordenine, 4-(2-dimethylaminoethyl)phenol]",Inflammation score,"SD rats [1]; Heart, female, high-dose group",0
same,Inflammation score,"SD rats [1]; Heart, female, low-dose group",0
same,Inflammation score,"SD rats [1]; Heart, male, high-dose group",0
same,Inflammation score,"SD rats [1]; Heart, male, low-dose group",0
same,Inflammation score,"SD rats [1]; Kidney, female, high-dose group",0
same,Inflammation score,"SD rats [1]; Kidney, female, low-dose group",0
same,Inflammation score,"SD rats [1]; Kidney, male, high-dose group",1
same,Inflammation score,"SD rats [1]; Kidney, male, low-dose group",0
same,Inflammation score,"SD rats [1]; Liver, female, high-dose group",0
same,Inflammation score,"SD rats [1]; Liver, female, low-dose group",0
same,Inflammation score,"SD rats [1]; Liver, male, high-dose group",0
same,Inflammation score,"SD rats [1]; Liver, male, low-dose group",0
same,Inflammation score,"SD rats [1]; Lung, female, high-dose group",1
same,Inflammation score,"SD rats [1]; Lung, female, low-dose group",0
same,Inflammation score,"SD rats [1]; Lung, male, high-dose group",1
same,Inflammation score,"SD rats [1]; Lung, male, low-dose group",0
same,Inflammation score,"SD rats [1]; Spleen, female, high-dose group",1
same,Inflammation score,"SD rats [1]; Spleen, female, low-dose group",0
same,Inflammation score,"SD rats [1]; Spleen, male, high-dose group",1
same,Inflammation score,"SD rats [1]; Spleen, male, low-dose group",0
same,general clinical signs,SD rats [1]; [3],no other adverse reactions
same,time to recovery of reduced activity after treatment,SD rats [1]; [3],about 2 hours
same,death of rats,SD rats [1]; gavage 0.07 g/kg and 0.035 g/kg twice a day for 7 days,No rats die; also recorded: no Rattus norvegicus death
same,lethal dose,"SD rats [1]; gavage, twice a day for 7 days",greater than 0.14 g/kg
same,"inflammation in the liver, spleen, and kidneys (pathological slices and biochemical experiments)",SD rats [1]; high-dose group,slight inflammation
same,kidney pathology,SD rats [1]; high-dose group,topical renal tubule interstitial connective tissue of rats in the high-dose group is proliferated
same,liver pathology (hepatocytes),SD rats [1]; high-dose group,extensive severe edema
same,lung pathology,SD rats [1]; high-dose group,"proliferated alveolar epithelial cells, and the alveolar walls are thickened"
same,spleen pathology (white pulp),SD rats [1]; high-dose group,topical lymphocytes in the white pulp of the spleen tissue are reduced
same,"tissue inflammatory response in the spleen, lung, and kidney",SD rats [1]; high-dose group,mild inflammatory response
same,kidney pathology,SD rats [1]; low-dose group,no obvious abnormality
same,liver pathology (hepatocytes),SD rats [1]; low-dose group,extensive edema
same,lung pathology,SD rats [1]; low-dose group,a large number of proliferated alveolar epithelial cells
same,spleen pathology (white pulp),SD rats [1]; low-dose group,"A small amount of lymphocytes exhibit necrosis, apoptosis"
same,tissue inflammatory response,SD rats [1]; low-dose group,no inflammatory response
same,liver function indexes,SD rats [1]; [4],no significant influence
same,renal function (blood BUN and CREA),SD rats [1]; [4],no significant influence
same,body weight,SD rats [1]; one week after the treatment,physiological increase
same,ALB,SD rats [1]; [5],32.45 ± 1.61 g/L
same,ALP,SD rats [1]; [5],195.08 ± 92.02 U/L
same,ALT,SD rats [1]; [5],51.25 ± 4.84 U/L
same,AST,SD rats [1]; [5],141 ± 12.04 U/L
same,DBIL,SD rats [1]; [5],7.23 ± 1.72 µmol/L
same,TBA,SD rats [1]; [5],27.57 ± 12.2 µmol/L
same,TBIL,SD rats [1]; [5],13.4 ± 5.73 µmol/L
same,TP,SD rats [1]; [5],55.45 ± 2.31 g/L
same,γ-GT,SD rats [1]; [5],3.62 ± 1.97 U/L
same,ALB,SD rats [1]; [6],29.5 ± 1.05 g/L
same,ALP,SD rats [1]; [6],278.67 ± 38.64 U/L
same,ALT,SD rats [1]; [6],51.47 ± 6.19 U/L
same,AST,SD rats [1]; [6],147.02 ± 17.42 U/L
same,DBIL,SD rats [1]; [6],6.14 ± 0.86 µmol/L
same,TBA,SD rats [1]; [6],41.43 ± 10.19 µmol/L
same,TBIL,SD rats [1]; [6],10.08 ± 2.69 µmol/L
same,TP,SD rats [1]; [6],49.11 ± 2.17 g/L
same,γ-GT,SD rats [1]; [6],3.9 ± 2.10 U/L
same,ALB,SD rats [1]; [7],31.88 ± 1.02 g/L
same,ALP,SD rats [1]; [7],229.4 ± 70.39 U/L
same,ALT,SD rats [1]; [7],43.54 ± 3.84 U/L
same,AST,SD rats [1]; [7],146.92 ± 24.61 U/L
same,DBIL,SD rats [1]; [7],9.03 ± 5.05 µmol/L
same,TBA,SD rats [1]; [7],23.77 ± 6.9 µmol/L
same,TBIL,SD rats [1]; [7],11.67 ± 5.16 µmol/L
same,TP,SD rats [1]; [7],53.54 ± 1.24 g/L
same,γ-GT,SD rats [1]; [7],3.92 ± 1.78 U/L
same,ALB,SD rats [1]; [8],28.86 ± 0.55 g/L
same,ALP,SD rats [1]; [8],328.05 ± 53.25 U/L
same,ALT,SD rats [1]; [8],40.46 ± 5.55 U/L
same,AST,SD rats [1]; [8],116.65 ± 18.14 U/L
same,DBIL,SD rats [1]; [8],6.81 ± 2.83 µmol/L
same,TBA,SD rats [1]; [8],36.99 ± 10.95 µmol/L
same,TBIL,SD rats [1]; [8],10.64 ± 4.19 µmol/L
same,TP,SD rats [1]; [8],47.34 ± 1.99 g/L
same,γ-GT,SD rats [1]; [8],2.59 ± 1.84 U/L
same,"pathological sections: toxicity to liver, spleen, lung and kidney",SD rats [1]; treatment groups,slight toxicity
same,"physiological conditions, weight changes, behavioral activities vs control group",SD rats [1]; treatment groups,no significant differences
same,expression of PRL in serum (ELISA),prolactin (PRL),significantly inhibit
same,time to recovery of reduced activity after treatment,SD rats [2]; 1 day,about 2 hours
same,death of rats within 7 days,"SD rats [2]; 1 day of administration, 7 days of observation",no rats die
same,general clinical signs,"SD rats [2]; 1 day, 7 days of observation",no other adverse reactions
same,expression of IL-β in serum (ELISA),IL-β,significantly inhibit
same,expression of ATCH in pituitary glands (Western blot),TLR4/NF-κB/MAPK pathway,significantly reduce
same,expression of MAPK12 in pituitary glands (Western blot),TLR4/NF-κB/MAPK pathway,significantly reduce; also recorded: significantly down-regulated
same,expression of NF-kB protein in pituitary glands,TLR4/NF-κB/MAPK pathway,significantly down-regulated
same,expression of PRL in pituitary glands (Western blot),TLR4/NF-κB/MAPK pathway,significantly reduce
same,expression of STAT3 protein in pituitary glands,TLR4/NF-κB/MAPK pathway,significantly down-regulated
same,expression of TLR4 in pituitary glands (Western blot),TLR4/NF-κB/MAPK pathway,significantly reduce; also recorded: significantly down-regulated
same,expression of TNF-α in pituitary glands (Western blot),TLR4/NF-κB/MAPK pathway,significantly reduce
same,expression of caspase-1 protein in pituitary glands,TLR4/NF-κB/MAPK pathway,significantly down-regulated
CC(C)C[C@H]1C(=O)N2CCC[C@H]2[C@]2(O)O[C@](NC(=O)[C@@H]3C=C4c5cccc6[nH]c(Br)c(c56)C[C@H]4N(C)C3)(C(C)C)C(=O)N12 [bromocriptine],side effects,pituitary prolactinoma,mainly gastrointestinal reactions
